Experiments:
HeLa cells [1] = tested on: HeLa cells
HeLa cells [2] = assay: alkaline comet unwinding assay in HeLa cells; format: cell-based, human; conditions: 100 μg/ml synthetic compounds, 5-6 h
Procedure: To assess DNA damage using chemical extracts of bacterial metabolites, HeLa, MC38 or HCT116 cells were treated with 5 mg/ml ethyl-acetate extracts diluted in culture medium supplemented with 10 mM HEPES for 4-6 h.
To assess DNA damage using pure compounds, HeLa cells were treated with 100 µg/ml cisplatin, 100 μg/ml, 25 μg/ml, or 10 μg/ml indolimine-214 (1), compound 2, indolimine-200 (3), indolimine-248 (4) or 0.1% DMSO diluted in culture medium supplemented with 10 mM HEPES for 4-6 h.
After treatment with ethyl-acetate extracts or pure synthetic compounds, HeLa cells were washed with PBS and collected via trypsinization. DNA damage was assessed via alkaline single cell gel electrophoresis using the Trevigen Comet Assay kit (Trevigen, Inc.) according to the manufacturer's instructions. Briefly, cells were embedded in Comet LMAgarose and loaded onto CometSlide™. Slides were placed flat at 4° C. in the dark for 10 min and then immersed overnight in Lysis Solution at 4° C. […] Comet images were acquired using a Leica DMRB fluorescence microscope. Tail DNA % (Tail DNA content as a percentage of Comet DNA content) and Tail moment (Tail length multiplied by Tail DNA %) were analyzed with OpenComet v1.3.1., and 20-50 comets were recorded for each sample.

[3] = tested on: circular pUC19 plasmid DNA
[4] = NMR analysis of synthetic indolimine-214 after preparative HPLC purification; conditions: upon preparative HPLC purification; reversible reaction in water

Row | SMILES | γ-H2AX in HeLa cells (HeLa cells [1]) | tailing in alkaline comet unwinding assay (HeLa cells [2]) | DNA damage of circular pUC19 plasmid [3] | genotoxicity (γ-H2AX, HeLa) in relation to purity (HeLa cells [1]) | degradation into the two starting materials [4] [%]
1 | CC(C)C/N=C/c1c[nH]c2ccccc12 [indolimine-200 (3)] | triggered increased 7-H2AX in HeLa cells in a dose-dependent manner | – | – | – | –
2 | CC(C)CCN=Cc1c[nH]c2ccccc12 [indolimine-214 (1)] | triggered increased γ-H2AX in a dose-dependent manner | induced tailing | neither synthetic indolimine-214 (1) nor compound 2 alone (up to 1 mg/ml) induced DNA damage | correlated directly with its purity | ≥ 20
3 | C(=N\CCc1ccccc1)/c1c[nH]c2ccccc12 [indolimine-248 (4)] | triggered increased 7-H2AX in HeLa cells in a dose-dependent manner | – | – | – | –
